Results published in patent US9808527B2, “Methods and compositions for treating HIV infections” (priority 2006, dated 2017).

Key:
[1] = test system: HIV-1MDR/C (X4); assay: microbe, parasite or virus in culture; type: cell-based; settings: for IC50: Human immunodeficiency virus 1, read-out: IC50 against HIV-1MDR/C (X4); for fold change of IC50, HIV-1MDR/C: compared to wild-type HIV-1ERS104pre
Experimental: (§1) Drug susceptibility assay. The susceptibility of HIV-1LAI, HIV-2EHO, HIV-2ROD, to various drugs and the cytotoxicity of those drugs was determined by using the MTT assay. Briefly, MT-2 cells (2×10^4/mL) were exposed to 100 TCID50s (50% tissue culture infectious doses) of HIV-1LAI, HIV-2EHO, or HIV-2ROD in the presence or absence of various concentrations of drugs in 96-well microculture plates and were incubated at 37° C. for 7 days. After 100 μL of the medium was removed from each well, 3-(4,5-dimethylthiazol-2-yl)-2,5-diphenyltetrazolium bromide (MTT) solution (10 μL, 7.5 mg/mL in phosphate-buffered saline) was added to each well in the plate, followed by incubation at 37° C. for 4 hours. […] All assays were performed in duplicate or triplicate. To determine the sensitivity of HIV-1Ba-L, HIV-1ERS104 pre, and clinical multi-drug-resistant HIV-1 isolates and different subtypes of HIV-1 isolates to drugs, phytohemagglutinin-activated peripheral blood mononuclear cells (PHA-PBMs; 10^6/mL) were exposed to 50 TCID50 (50% tissue infectious dose) of each HIV-1 isolate and cultured in the presence or absence of various concentrations of drugs in 10-fold serial dilutions in 96-well microtiter culture plates. To determine the drug susceptibility of certain laboratory HIV-1 strains (HIV-1NL4-3), MT-4 cells were used as target cells. MT-4 cells (10^5/mL) were exposed to 100 TCID50 of wild type HIV-1NL4-3 and PI-resistant HIV-1NL4-3 in the presence or absence of various concentrations of drugs and were incubated at 37° C. On day 7 of culture, the supernatant was harvested and the amount of p24 Gag protein was determined by using a fully automated chemiluminescent enzyme immunoassay system (Lumipulse F; Fujirebio Inc., Tokyo, Japan) (22). […] All assays were performed in duplicate or triplicate.
(§2) HIV-1ERS104pre served as a source of wild-type HIV-1. The IC50 values were determined by using PHA-PBMs as target cells and the inhibition of p24 Gag protein production by each drug was used as an endpoint.

[2] = test system: HIV-1MDR/MM (R5); assay: microbe, parasite or virus in culture; type: cell-based; settings: for IC50: Human immunodeficiency virus 1, read-out: IC50 against HIV-1MDR/MM (R5); for fold change of IC50, HIV-1MDR/MM: compared to wild-type HIV-1ERS104pre
Experimental: as §1, §2

[3] = test system: HIV-1MDR/JSL (R5); assay: microbe, parasite or virus in culture; type: cell-based; settings: for IC50: Human immunodeficiency virus 1, read-out: IC50 against HIV-1MDR/JSL (R5); for fold change of IC50, HIV-1MDR/JSL: compared to wild-type HIV-1ERS104pre
Experimental: as §1, §2

[4] = test system: HIV-1NFV5μM; assay: microbe, parasite or virus in culture; type: cell-based; settings: for IC50: Human immunodeficiency virus 1, MT4, read-out: IC50 against HIV-1NFV5μM; for fold change of IC50, HIV-1NFV5μM: compared to wild-type HIV-1NL4-3
Experimental: as §1
(§3) Generation of PI-resistant HIV-1 in vitro. MT-4 cells (10^5/mL) were exposed to HIV-1NL4-3 (500 TCID50) and cultured in the presence of various PIs at an initial concentration of its IC50 values. Viral replication was monitored by determination of the amount of p24 Gag produced by MT-4 cells. The culture supernatants were harvested on day 7 and used to infect fresh MT-4 cells for the next round of culture in the presence of increasing concentrations of each drug. […] Proviral DNA samples obtained from the lysates of infected cells were subjected to nucleotide sequencing. This drug selection procedure was carried out until the drug concentration reached 1 or 5 μM.

[5] = test system: HIV-1IDV5μM; assay: microbe, parasite or virus in culture; type: cell-based; settings: for IC50: Human immunodeficiency virus 1, MT4, read-out: IC50 against HIV-1IDV5μM; for fold change of IC50, HIV-1IDV5μM: compared to wild-type HIV-1NL4-3
Experimental: as §1, §3

[6] = test system: HIV-1APV5μM; assay: microbe, parasite or virus in culture; type: cell-based; settings: for IC50: Human immunodeficiency virus 1, MT4, read-out: IC50 against HIV-1APV5μM; for fold change of IC50, HIV-1APV5μM: compared to wild-type HIV-1NL4-3
Experimental: as §1, §3

[7] = test system: HIV-1SQV5μM; assay: microbe, parasite or virus in culture; type: cell-based; settings: for IC50: Human immunodeficiency virus 1, MT4, read-out: IC50 against HIV-1SQV5μM; for fold change of IC50, HIV-1SQV5μM: compared to wild-type HIV-1NL4-3
Experimental: as §1, §3

[8] = test system: HIV-1ATV1μM; assay: microbe, parasite or virus in culture; type: cell-based; settings: for IC50: Human immunodeficiency virus 1, MT4, read-out: IC50 against HIV-1ATV1μM; for fold change of IC50, HIV-1ATV1μM: compared to wild-type HIV-1NL4-3
Experimental: as §1, §3

[9] = test system: HIV-1RTV5μM; assay: microbe, parasite or virus in culture; type: cell-based; settings: for IC50: Human immunodeficiency virus 1, MT4, read-out: IC50 against HIV-1RTV5μM; for fold change of IC50, HIV-1RTV5μM: compared to wild-type HIV-1NL4-3
Experimental: as §1, §3

[10] = test system: HIV-1LPV1μM; assay: microbe, parasite or virus in culture; type: cell-based; settings: for IC50: Human immunodeficiency virus 1, MT4, read-out: IC50 against HIV-1LPV1μM; for fold change of IC50, HIV-1LPV1μM: compared to wild-type HIV-1NL4-3
Experimental: as §1, §3

[11] = test system: 92UG037 (A-R5); assay: p24 Gag production inhibition, PHA-PBMs, subtype A isolate 92UG037; type: cell-based, HIV-1; settings: Human immunodeficiency virus 1, read-out: IC50 against 92UG037 (A-R5)
Experimental: as §1
The IC50 values were determined by using PHA-PBMs as target cells and the inhibition of p24 Gag protein production by each drug was used as an endpoint.

[12] = test system: HIV-1NL4-3; assay: In vitro selection of HIV-1 variants resistant to GRL-98065; type: cell-based
Description: as §3
The protease-encoding region of the proviral DNA isolated from infected MT-4 cells was cloned and sequenced at passages 5, 10, 15, 20, 25, 30, 33, and 40. […] Met46 is located on the flap region of the enzyme.

SMILES: CC(C)CN(C[C@@H](O)[C@H](Cc1ccccc1)NC(=O)O[C@H]1CCOC1)S(=O)(=O)c1ccc(N)cc1 [APV, Amprenavir]
- IC50 [1]: 250 ± 50 nM
- IC50 [2]: 480 ± 90 nM
- IC50 [3]: 430 ± 50 nM
- IC50 [4]: 60 ± 4 nM
- IC50 [5]: 170 ± 10 nM
- IC50 [6]: > 1000 nM
- IC50 [7]: 330 ± 30 nM
- IC50 [8]: 200 ± 70 nM
- IC50 [9]: 280 ± 20 nM
- IC50 [10]: 310 ± 20 nM

SMILES: CC(C)(C)NC(=O)[C@@H]1CN(Cc2cccnc2)CCN1C[C@@H](O)C[C@@H](Cc1ccccc1)C(=O)N[C@H]1c2ccccc2C[C@H]1O [IDV, indinavir]
- IC50 [1]: > 1000 nM
- IC50 [2]: > 1000 nM
- IC50 [3]: > 1000 nM
- IC50 [4]: 270 ± 50 nM
- IC50 [5]: > 1000 nM
- IC50 [6]: 200 ± 7 nM
- IC50 [7]: > 1000 nM
- IC50 [8]: 388 ± 1 nM
- IC50 [9]: 250 ± 10 nM
- IC50 [10]: > 1000 nM

SMILES: COC(=O)N[C@H](C(=O)N[C@@H](Cc1ccccc1)[C@@H](O)CN(Cc1ccc(-c2ccccn2)cc1)NC(=O)[C@@H](NC(=O)OC)C(C)(C)C)C(C)(C)C [ATV, Atazanavir]
- IC50 [11]: 2.5 ± 0.2 nM
- IC50 [1]: 21 ± 6 nM
- fold change of IC50, HIV-1MDR/C [1]: 6
- IC50 [2]: 45 ± 0.1 nM
- fold change of IC50, HIV-1MDR/MM [2]: 12
- IC50 [3]: 540 ± 200 nM
- fold change of IC50, HIV-1MDR/JSL [3]: 142
- IC50 [4]: 21 ± 6 nM
- fold change of IC50, HIV-1NFV5μM [4]: 5
- IC50 [5]: 60 ± 20 nM
- fold change of IC50, HIV-1IDV5μM [5]: 14
- IC50 [6]: 3 ± 1 nM
- fold change of IC50, HIV-1APV5μM [6]: 1
- IC50 [7]: 326 ± 1 nM
- fold change of IC50, HIV-1SQV5μM [7]: 78
- IC50 [8]: 330 nM
- fold change of IC50, HIV-1ATV1μM [8]: 79
- IC50 [9]: 18 ± 8 nM
- fold change of IC50, HIV-1RTV5μM [9]: 4
- IC50 [10]: 40 ± 2 nM
- fold change of IC50, HIV-1LPV1μM [10]: 10

SMILES: CC(C)(C)NC(=O)[C@@H]1C[C@@H]2CCCC[C@@H]2CN1C[C@@H](O)[C@H](Cc1ccccc1)NC(=O)[C@H](CC(N)=O)NC(=O)c1ccc2ccccc2n1 [SQV, Saquinavir]
- IC50 [11]: 3.2 ± 0.3 nM
- IC50 [1]: 35 ± 4 nM
- fold change of IC50, HIV-1MDR/C [1]: 4
- IC50 [2]: 140 ± 40 nM
- fold change of IC50, HIV-1MDR/MM [2]: 18
- IC50 [3]: 290 ± 50 nM
- fold change of IC50, HIV-1MDR/JSL [3]: 36
- IC50 [4]: 24 ± 8 nM
- fold change of IC50, HIV-1NFV5μM [4]: 3
- IC50 [5]: 59 ± 4 nM
- fold change of IC50, HIV-1IDV5μM [5]: 8
- IC50 [6]: 31 ± 4 nM
- fold change of IC50, HIV-1APV5μM [6]: 4
- IC50 [7]: > 1000 nM
- fold change of IC50, HIV-1SQV5μM [7]: > 143
- IC50 [8]: 37 ± 4 nM
- fold change of IC50, HIV-1ATV1μM [8]: 5
- IC50 [9]: 10 ± 8 nM
- fold change of IC50, HIV-1RTV5μM [9]: 1
- IC50 [10]: 32 ± 2 nM
- fold change of IC50, HIV-1LPV1μM [10]: 5

SMILES: Cc1c(O)cccc1C(=O)N[C@@H](CSc1ccccc1)[C@H](O)CN1C[C@H]2CCCC[C@H]2C[C@H]1C(=O)NC(C)(C)C [NFV, Nelfinavir]
- IC50 [11]: 56 ± 14 nM

SMILES: CC(C)CN(CC(O)C(Cc1ccccc1)NC(=O)OC1COC2OCCC12)S(=O)(=O)c1ccc2c(c1)OCO2 (stereo not drawn) [GRL-98065]
- IC50 [11]: 0.4 ± 0.1 nM
- IC50 [1]: 2.7 ± 0.3 nM
- fold change of IC50, HIV-1MDR/C [1]: 5
- IC50 [2]: 3.8 ± 0.6 nM
- fold change of IC50, HIV-1MDR/MM [2]: 8
- IC50 [3]: 6 nM
- fold change of IC50, HIV-1MDR/JSL [3]: 12
- IC50 [4]: 2.4 ± 0.8 nM
- fold change of IC50, HIV-1NFV5μM [4]: 8
- IC50 [5]: 3.7 ± 0.7 nM
- fold change of IC50, HIV-1IDV5μM [5]: 12
- IC50 [6]: 32 nM
- fold change of IC50, HIV-1APV5μM [6]: 107
- IC50 [7]: 6 ± 3 nM
- fold change of IC50, HIV-1SQV5μM [7]: 20
- IC50 [8]: 1.5 ± 0.9 nM
- fold change of IC50, HIV-1ATV1μM [8]: 5
- IC50 [9]: 2.5 ± 0.3 nM
- fold change of IC50, HIV-1RTV5μM [9]: 8
- IC50 [10]: 7.5 ± 0.3 nM
- fold change of IC50, HIV-1LPV1μM [10]: 25
- fold increase of drug concentration tolerated by selected virus ([12]; 40 passages in MT-4 cells, start 0.0005 μM): 1,000
- drug concentration at which selected virus was still propagating ([12]; after 40 passages in MT-4 cells): 0.5 µM

SMILES: CC(C)c1nc(CN(C)C(=O)N[C@H](C(=O)N[C@@H](Cc2ccccc2)C[C@H](O)[C@H](Cc2ccccc2)NC(=O)OCc2cncs2)C(C)C)cs1 [RTV, ritonavir]
- IC50 [11]: 41 ± 8 nM
